Assay results reported in patent publication US12304900B2, “Islet cell manufacturing compositions and methods of use” (Vertex Pharmaceuticals Incorporated, priority 2017, dated 2025).

Tested on: PGT cells (Stage 2 cells)
Assay: Flow cytometry of cell constituent at Stage 4-complete after signaling factors at Stage 3
Type: cell-based
From the text: In the meantime, LDN193189 also promoted chromogranin A (CHGA) expression in Stage 4-complete cells.

[1] = Stage 4-complete, 0.5 μM DMH-1 alone vs no DMH-1, FIG. 6B

SMILES	chromogranin A (CHGA) expression (Stage 4-complete cells, LDN193189 at Stage 3, FIG. 6A)	percentage of CDX2-positive cells (Stage 4-complete, LDN193189 at Stage 3 vs absence, FIG. 6A)	percentage of cells expressing CDX2 [1]	percentage of cells expressing CHGA [1]
c1ccc2c(-c3cnn4cc(-c5ccc(N6CCNCC6)cc5)cnc34)ccnc2c1 [LDN193189, 4-[6-(4-piperazin-1-ylphenyl)pyrazolo[1,5-a]pyrimidin-β-yl]quinolone]	promoted	clearly reduced	–	–
CC(C)Oc1ccc(-c2cnc3c(-c4ccnc5ccccc45)cnn3c2)cc1 [DMH-1]	–	–	reduced	increased
